Experimental data as given in PubChem BioAssay AID1963838 (Molecular Pharmacology Branch, DTP, NCI, 2024).

Test system: 855422-203-R-J1-PDC complex spheroid viability
Test: Anticancer human tumor 855422-203-R-J1-PDC patient-derived bladder carcinoma cell line growth inhibition [POLQ]
Settings: for IC50: curve of first compound; for viability, T/C: stronger effect = lower value
Outline: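 PDC + HUVEC + MSC complex spheroids; POLQ inhibitors ± partner drugs; top conc. at/near clinical Cmax, else 10 microM (SN-38 1 microM), half-log dilutions; 37 degrees C, 5% CO2.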

[1] = second compound 0.0316 µM, first compound 0.0316 µM
[2] = second compound 0.0316 µM, first compound 0.1 µM
[3] = second compound 0.0316 µM, first compound 0.316 µM
[4] = second compound 0.0316 µM, first compound 1 µM
[5] = second compound 0.0316 µM, first compound 3.16 µM
[6] = second compound 0.0316 µM, first compound 10 µM
[7] = second compound 0.1 µM, first compound 0.0316 µM
[8] = second compound 0.1 µM, first compound 0.1 µM
[9] = second compound 0.1 µM, first compound 0.316 µM
[10] = second compound 0.1 µM, first compound 1 µM
[11] = second compound 0.1 µM, first compound 3.16 µM
[12] = second compound 0.1 µM, first compound 10 µM
[13] = second compound 0.316 µM, first compound 0.0316 µM
[14] = second compound 0.316 µM, first compound 0.1 µM
[15] = second compound 0.316 µM, first compound 0.316 µM
[16] = second compound 0.316 µM, first compound 1 µM
[17] = second compound 0.316 µM, first compound 3.16 µM
[18] = second compound 0.316 µM, first compound 10 µM
[19] = second compound 1 µM, first compound 0.0316 µM
[20] = second compound 1 µM, first compound 0.1 µM
[21] = second compound 1 µM, first compound 0.316 µM
[22] = second compound 1 µM, first compound 1 µM
[23] = second compound 1 µM, first compound 3.16 µM
[24] = second compound 1 µM, first compound 10 µM
[25] = second compound 3.16 µM, first compound 0.0316 µM
[26] = second compound 3.16 µM, first compound 0.1 µM
[27] = second compound 3.16 µM, first compound 0.316 µM
[28] = second compound 3.16 µM, first compound 1 µM
[29] = second compound 3.16 µM, first compound 3.16 µM
[30] = second compound 3.16 µM, first compound 10 µM
[31] = second compound 10 µM, first compound 0.0316 µM
[32] = second compound 10 µM, first compound 0.1 µM
[33] = second compound 10 µM, first compound 0.316 µM
[34] = second compound 10 µM, first compound 1 µM
[35] = second compound 10 µM, first compound 3.16 µM
[36] = second compound 10 µM, first compound 10 µM
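Note: spheroids exposed to compounds for seven days before readout.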

CCc1cc2c(N3CCc4c(cc(Cn5ccnc5)cc4-c4cn(C)nc4C(F)(F)F)C3=O)ccnc2c(OC)n1 + COC1C(OC(N)=O)C(O)C(Oc2ccc3c(O)c(NC(=O)c4ccc(O)c(CC=C(C)C)c4)c(=O)oc3c2C)OC1(C)C
IC50 (second compound 0.0316 µM): 4.02 µM | IC50 (second compound 0.1 µM): 3.41 µM | IC50 (second compound 0.316 µM): 2.73 µM | IC50 (second compound 1 µM): 2.6 µM | IC50 (second compound 3.16 µM): 2.05 µM | IC50 (second compound 10 µM): 2.22 µM | viability, T/C [1]: 83.6% | viability, T/C [2]: 95% | viability, T/C [3]: 83.4% | viability, T/C [4]: 69.5% | viability, T/C [5]: 55.9% | viability, T/C [6]: 34.5% | viability, T/C [7]: 88.2% | viability, T/C [8]: 82.8% | viability, T/C [9]: 84.1% | viability, T/C [10]: 66.8% | viability, T/C [11]: 52.6% | viability, T/C [12]: 28.5% | viability, T/C [13]: 93.3% | viability, T/C [14]: 80.3% | viability, T/C [15]: 93.2% | viability, T/C [16]: 75.1% | viability, T/C [17]: 46.7% | viability, T/C [18]: 31% | viability, T/C [19]: 87.9% | viability, T/C [20]: 76.9% | viability, T/C [21]: 71.2% | viability, T/C [22]: 65.1% | viability, T/C [23]: 46.6% | viability, T/C [24]: 28.6% | viability, T/C [25]: 89.5% | viability, T/C [26]: 90% | viability, T/C [27]: 68.9% | viability, T/C [28]: 67.3% | viability, T/C [29]: 40% | viability, T/C [30]: 28.1% | viability, T/C [31]: 99.3% | viability, T/C [32]: 76% | viability, T/C [33]: 80.3% | viability, T/C [34]: 72.9% | viability, T/C [35]: 39.3% | viability, T/C [36]: 31.9%

COc1cc2cc(C(=O)CCC(=O)O)sc2cc1OC + COC1C(OC(N)=O)C(O)C(Oc2ccc3c(O)c(NC(=O)c4ccc(O)c(CC=C(C)C)c4)c(=O)oc3c2C)OC1(C)C
IC50 (second compound 0.0316 µM): > 10 µM | IC50 (second compound 0.1 µM): > 10 µM | IC50 (second compound 0.316 µM): > 10 µM | IC50 (second compound 1 µM): > 10 µM | IC50 (second compound 3.16 µM): > 10 µM | IC50 (second compound 10 µM): > 10 µM | viability, T/C [1]: 105% | viability, T/C [2]: 97.2% | viability, T/C [3]: 115% | viability, T/C [4]: 106% | viability, T/C [5]: 99.8% | viability, T/C [6]: 101% | viability, T/C [7]: 83.2% | viability, T/C [8]: 111% | viability, T/C [9]: 105% | viability, T/C [10]: 98.8% | viability, T/C [11]: 111% | viability, T/C [12]: 88.2% | viability, T/C [13]: 115% | viability, T/C [14]: 101% | viability, T/C [15]: 110% | viability, T/C [16]: 106% | viability, T/C [17]: 113% | viability, T/C [18]: 101% | viability, T/C [19]: 104% | viability, T/C [20]: 105% | viability, T/C [21]: 90.5% | viability, T/C [22]: 109% | viability, T/C [23]: 99.5% | viability, T/C [24]: 94.6% | viability, T/C [25]: 98% | viability, T/C [26]: 102% | viability, T/C [27]: 110% | viability, T/C [28]: 111% | viability, T/C [29]: 114% | viability, T/C [30]: 86.4% | viability, T/C [31]: 104% | viability, T/C [32]: 107% | viability, T/C [33]: 105% | viability, T/C [34]: 104% | viability, T/C [35]: 95.7% | viability, T/C [36]: 82.8%

O=C(Nc1ccc(O)c(NS(=O)(=O)c2ccc(F)cc2)c1)c1ccc(-c2ccccc2)cc1 + COC1C(OC(N)=O)C(O)C(Oc2ccc3c(O)c(NC(=O)c4ccc(O)c(CC=C(C)C)c4)c(=O)oc3c2C)OC1(C)C
IC50 (second compound 0.0316 µM): 8.24 µM | IC50 (second compound 0.1 µM): 8.44 µM | IC50 (second compound 0.316 µM): 8.45 µM | IC50 (second compound 1 µM): 8.14 µM | IC50 (second compound 3.16 µM): 7.83 µM | IC50 (second compound 10 µM): 7.63 µM | viability, T/C [1]: 101% | viability, T/C [2]: 101% | viability, T/C [3]: 119% | viability, T/C [4]: 116% | viability, T/C [5]: 106% | viability, T/C [6]: 38.7% | viability, T/C [7]: 109% | viability, T/C [8]: 105% | viability, T/C [9]: 110% | viability, T/C [10]: 98.2% | viability, T/C [11]: 103% | viability, T/C [12]: 40.8% | viability, T/C [13]: 105% | viability, T/C [14]: 110% | viability, T/C [15]: 113% | viability, T/C [16]: 110% | viability, T/C [17]: 106% | viability, T/C [18]: 40.4% | viability, T/C [19]: 106% | viability, T/C [20]: 111% | viability, T/C [21]: 111% | viability, T/C [22]: 113% | viability, T/C [23]: 98.8% | viability, T/C [24]: 39% | viability, T/C [25]: 109% | viability, T/C [26]: 122% | viability, T/C [27]: 112% | viability, T/C [28]: 111% | viability, T/C [29]: 94.2% | viability, T/C [30]: 37.9% | viability, T/C [31]: 107% | viability, T/C [32]: 104% | viability, T/C [33]: 108% | viability, T/C [34]: 102% | viability, T/C [35]: 101% | viability, T/C [36]: 34.6%

COc1cccc2c1C(=O)c1c(O)c3c(c(O)c1C2=O)CC(O)(C(=O)CO)CC3OC1CC(N)C(O)C(C)O1 (stereo not drawn) + Cc1cccc(N(C)C(=O)C2C(O)CCN2c2nc(C)cc(C(F)(F)F)c2C#N)c1
IC50 (second compound 0.0316 µM): < 0.0316 µM | IC50 (second compound 0.1 µM): < 0.0316 µM | IC50 (second compound 0.316 µM): < 0.0316 µM | IC50 (second compound 1 µM): < 0.0316 µM | IC50 (second compound 3.16 µM): < 0.0316 µM | IC50 (second compound 10 µM): < 0.0316 µM | viability, T/C [1]: 16.1% | viability, T/C [2]: 10.2% | viability, T/C [3]: 2.55% | viability, T/C [4]: 0.3% | viability, T/C [5]: 0.66% | viability, T/C [6]: 2.13% | viability, T/C [7]: 15.8% | viability, T/C [8]: 10.1% | viability, T/C [9]: 2.47% | viability, T/C [10]: 0.26% | viability, T/C [11]: 0.48% | viability, T/C [12]: 2.11% | viability, T/C [13]: 16.4% | viability, T/C [14]: 9.49% | viability, T/C [15]: 3.59% | viability, T/C [16]: 0.33% | viability, T/C [17]: 0.43% | viability, T/C [18]: 1.8% | viability, T/C [19]: 14.4% | viability, T/C [20]: 9.02% | viability, T/C [21]: 2.18% | viability, T/C [22]: 0.24% | viability, T/C [23]: 0.8% | viability, T/C [24]: 1.14% | viability, T/C [25]: 14.1% | viability, T/C [26]: 8.42% | viability, T/C [27]: 2.03% | viability, T/C [28]: 0.25% | viability, T/C [29]: 0.6% | viability, T/C [30]: 2.24% | viability, T/C [31]: 13.5% | viability, T/C [32]: 9.55% | viability, T/C [33]: 1.76% | viability, T/C [34]: 0.25% | viability, T/C [35]: 0.59% | viability, T/C [36]: 1.9%
